ChEMBL document CHEMBL1155491, “Acylurea connected straight chain hydroxamates as novel histone deacetylase inhibitors: Synthesis, SAR, and in vivo antitumor activity” (Bioorg Med Chem Lett, 2010)
pIC50: −log10 of the molar value. Converted amounts (≈) assume the structure as drawn. The source made the active and inactive calls. No cut-off for these calls is given here.

What was measured:
Histone deacetylase 1 [1] = target: T1, Histone deacetylase 1 (Homo sapiens, UniProt Q13547)
Histone deacetylase 1 [2] = target: T1, Histone deacetylase 1; remark: listed apart in the source
[3] = Half life in human liver microsome; type: ADME; details: liver microsomes
HCT-116 [4] = test: Antiproliferative activity against human HCT116 cells; type: functional, cell-based
PC-3 = test: Antiproliferative activity against human PC3 cells; type: functional, cell-based
Histone deacetylase 1 [5] = target: T1, Histone deacetylase 1; test: Inhibition of HDAC1 in human COLO205 cells assessed as induction of histone H3 acetylation at 10 uM by Western-immuno blotting; type: cell-based; details: COLO 205
[6] = Solubility at pH 7; type: physicochemical; details: buffer
A2780 = test: Antiproliferative activity against human A2780 cells; type: functional, cell-based
HCT-116 [7] = test: Antitumor activity against human HCT116 cells xenografted in BALB/c mouse at 200 mg/kg, po after 21 days; type: functional, organism-based; set-up: dose 200 mg/kg
[8] = Octanol-water distribution coefficient, log D of the compound; type: physicochemical
[9] = Volume of distribution at steady state in mouse at 10 mg/kg, iv; type: ADME, organism-based; set-up: dose 10 mg/kg, route intravenous; details: in vivo, read-out: Vdss
[10] = Half life in mouse liver microsome; type: ADME; details: liver microsomes
[11] = Clearance in mouse at 10 mg/kg, iv; type: ADME, organism-based; set-up: dose 10 mg/kg, route intravenous; details: in vivo
[12] = Apparent permeability from apical to basolateral side of Caco-2 cells; type: ADME, cell-based; details: human
[13] = Oral bioavailability in mouse at 50 mg/kg, po; details: in vivo
[14] = Half life in rat liver microsome; type: ADME; details: liver microsomes
[15] = Thermodynamic solubility at pH 7.4; type: physicochemical; details: buffer, read-out: Therm_solubility
[16] = Elimination half life in mouse at 10 mg/kg, iv; type: ADME, organism-based; set-up: dose 10 mg/kg, route intravenous; details: in vivo, read-out: beta t1/2 (converted)
[17] = Toxicity in human PC3 cells xenografted nude mouse; type: organism-based, PC-3; details: in vivo
Histone deacetylase 8 = target: T2, Histone deacetylase 8 (Homo sapiens, UniProt Q9BY41); test: Inhibition of HDAC8
T2 sequence (Q9BY41 whole entry): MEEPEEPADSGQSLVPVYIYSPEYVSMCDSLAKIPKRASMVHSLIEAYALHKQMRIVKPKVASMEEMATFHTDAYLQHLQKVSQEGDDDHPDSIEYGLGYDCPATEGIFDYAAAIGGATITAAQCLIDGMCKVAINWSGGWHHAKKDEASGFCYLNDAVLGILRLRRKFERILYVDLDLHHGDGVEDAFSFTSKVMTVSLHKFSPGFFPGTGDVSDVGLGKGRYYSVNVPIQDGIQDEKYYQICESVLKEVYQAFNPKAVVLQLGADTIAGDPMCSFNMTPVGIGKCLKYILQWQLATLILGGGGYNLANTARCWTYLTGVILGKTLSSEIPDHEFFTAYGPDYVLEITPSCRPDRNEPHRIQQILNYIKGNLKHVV

T1 sequence (Q13547 whole entry): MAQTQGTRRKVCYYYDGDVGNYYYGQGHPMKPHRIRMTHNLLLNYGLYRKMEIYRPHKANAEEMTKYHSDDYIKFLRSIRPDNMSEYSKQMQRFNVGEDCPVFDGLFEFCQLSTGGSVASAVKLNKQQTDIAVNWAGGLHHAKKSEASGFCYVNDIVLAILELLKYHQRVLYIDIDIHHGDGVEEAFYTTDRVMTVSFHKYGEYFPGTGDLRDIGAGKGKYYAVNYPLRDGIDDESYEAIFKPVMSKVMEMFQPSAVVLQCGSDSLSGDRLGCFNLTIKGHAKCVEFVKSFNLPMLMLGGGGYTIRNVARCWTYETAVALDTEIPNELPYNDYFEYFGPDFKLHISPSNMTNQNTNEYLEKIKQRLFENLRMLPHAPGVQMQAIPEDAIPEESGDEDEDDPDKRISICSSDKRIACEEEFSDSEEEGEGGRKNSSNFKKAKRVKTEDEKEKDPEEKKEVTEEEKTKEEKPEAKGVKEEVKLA

| SMILES | pIC50 (Histone deacetylase 1 [1]) | pIC50 (Histone deacetylase 1 [2]) | further results |
| --- | --- | --- | --- |
| O=C(CCCCCNC(=O)NC(=O)c1ccc2c(c1)ncn2CCCc1ccccc1)NO | 5.43 | 7.70 |  |
| CCCCc1nc2cc(C(=O)NC(=O)NCCCCCC(=O)NO)ccc2n1CCN1CCCC1 | 5.54 | 7.66 | half-life [3]: > 30 min; pIC50 (HCT-116 [4]): 5.45; pIC50 (PC-3): 5.90; Activity (Histone deacetylase 1 [5]): Active; solubility [6]: > 211 µM; pIC50 (A2780): 5.87 |
| O=C(CCCCCNC(=O)NC(=O)c1ccc2c(c1)nc(CCc1ccccc1)n2CCN1CCCC1)NO | 5.27 | 7.47 | half-life [3]: 21 min; Activity (Histone deacetylase 1 [5]): Active; solubility [6]: > 250 µM |
| O=C(CCCCCNC(=O)NC(=O)c1ccc(I)cc1)NO | 6.06 | 8.10 |  |
| O=C(CCCCCCC(=O)Nc1ccccc1)NO [VORINOSTAT] |  |  | half-life [3]: > 60 min; Activity (HCT-116 [7]): Active; logD [8]: 1.04; Vd [9]: 0.81 L/kg; half-life [10]: > 30 min; clearance [11]: 112 mL/min/kg; Papp A→B [12]: 1.7 ×10⁻⁶ cm/s; bioavailability [13]: 8.3%; half-life [14]: > 30 min; solubility [6]: > 250 µM; solubility thermodynamic [15]: 166 µg/mL (≈ 628 µM); half-life [16]: 22.8 min; MTD [17]: 160 mg/kg |
| O=C(CCCCCNC(=O)NC(=O)c1ccc2c(c1)ncn2CCc1ccccc1)NO | 5.01 | 7.60 |  |
| O=C(CCCCCNC(=O)NC(=O)c1ccc(-c2cncnc2)cc1)NO | 5.00 | 7.59 | half-life [3]: > 30 min; Activity (Histone deacetylase 1 [5]): Active; solubility [6]: 17 µM (≈ 6.31 µg/mL) |
| O=C(CCCCCNC(=O)NC(=O)c1ccc(NS(=O)(=O)c2ccccc2)cc1)NO | < 4.00 | 7.01 |  |
| O=C(CCCNC(=O)NC(=O)c1ccccc1)NO |  | < 5.00 | pIC50 (Histone deacetylase 8): < 5.00 |
| O=C(CCCCCCN(Cc1ccccn1)C(=O)NC(=O)c1ccccc1)NO | 5.04 | 6.26 |  |
| O=C(CCCCCNC(=O)NC(=O)c1ccc2ccccc2c1)NO | 5.67 | 8.22 |  |
| O=C(CCCCCNC(=O)NC(=O)c1c(Cl)cccc1Cl)NO | 5.53 | 6.73 |  |
| O=C(CCCCCCCNC(=O)NC(=O)c1ccccc1)NO | 5.08 |  | pIC50 (Histone deacetylase 8): 6.39 |
| O=C(CCCCCNC(=O)NC(=O)c1ccc(NC(=O)Cc2ccccc2)cc1)NO | 4.88 | 7.36 | Activity (Histone deacetylase 1 [5]): Active; solubility [6]: 28 µM (≈ 11.9 µg/mL) |
| O=C(CCCCCN(CCCc1ccccc1)C(=O)NC(=O)c1ccccc1)NO |  | 6.41 | pIC50 (Histone deacetylase 8): 6.48 |
| O=C(CCCCCN(Cc1ccccc1)C(=O)NC(=O)c1ccccc1)NO | 5.50 | 6.45 | Activity (Histone deacetylase 1 [5]): Active |
| O=C(CCCCCCNC(=O)NC(=O)c1ccccc1)NO | 5.57 | 6.84 | Activity (Histone deacetylase 1 [5]): Active |
| O=C(CCCCCN(Cc1ccccn1)C(=O)NC(=O)c1ccccc1)NO | 4.83 | 6.61 |  |
| O=C(CCCCCCN(Cc1ccccc1)C(=O)NC(=O)c1ccccc1)NO |  | 5.80 |  |

Further lines, with some results ahead:

| pIC50 (Histone deacetylase 1 [1]) | pIC50 (Histone deacetylase 1 [2]) | SMILES | further results |
| --- | --- | --- | --- |
| 5.62 | 7.66 | O=C(CCCCCNC(=O)NC(=O)c1ccc(NCCN2CCCC2)c([N+](=O)[O-])c1)NO | half-life [3]: > 30 min; pIC50 (HCT-116 [4]): 5.88; pIC50 (PC-3): 6.04; Activity (Histone deacetylase 1 [5]): Active; solubility [6]: > 205 µM; pIC50 (A2780): 6.00 |
| 5.49 | 7.34 | O=C(CCCCCNC(=O)NC(=O)c1ccc(N2CCCCC2)c([N+](=O)[O-])c1)NO |  |
| 4.92 | 7.26 | O=C(CCCCCNC(=O)NC(=O)c1ccc(N2CCOCC2)c([N+](=O)[O-])c1)NO |  |
| 5.80 | 7.59 | O=C(CCCCCNC(=O)NC(=O)c1ccc(Cl)cc1)NO |  |
| 5.77 | 7.70 | CCN(CC)CCNc1ccc(C(=O)NC(=O)NCCCCCC(=O)NO)cc1[N+](=O)[O-] |  |
| 5.50 | 7.22 | O=C(CCCCCNC(=O)NC(=O)c1cccc(Br)c1)NO |  |
| 5.55 | 7.04 | O=C(CCCCCNC(=O)NC(=O)c1cccc([N+](=O)[O-])c1)NO |  |
| 5.90 | 7.96 | Nc1cc(C(=O)NC(=O)NCCCCCC(=O)NO)ccc1Cl |  |
| 4.94 | 7.37 | CN1CCN(c2ccc(C(=O)NC(=O)NCCCCCC(=O)NO)cc2[N+](=O)[O-])CC1 |  |
| 5.43 | 7.70 | CN(C)CC(C)(C)Cn1cnc2cc(C(=O)NC(=O)NCCCCCC(=O)NO)ccc21 |  |
| 5.64 | 7.35 | O=C(CCCCCNC(=O)NC(=O)c1ccc([N+](=O)[O-])cc1)NO | Activity (Histone deacetylase 1 [5]): Active |
| 5.46 | 7.70 | O=C(CCCCCNC(=O)NC(=O)c1ccc(N2CCCC2)c([N+](=O)[O-])c1)NO |  |
| 4.71 | 7.31 | CN(C)CCn1cnc2cc(C(=O)NC(=O)NCCCCCC(=O)NO)ccc21 |  |
| 5.59 | 6.94 | O=C(CCCCCNC(=O)NC(=O)c1ccc(F)cc1)NO |  |
| 5.29 | 7.68 | CCN(CC)CCn1cnc2cc(C(=O)NC(=O)NCCCCCC(=O)NO)ccc21 |  |
| 5.63 | 7.62 | CC(C)(C)c1ccc(C(=O)NC(=O)NCCCCCC(=O)NO)cc1 |  |
